{"source": "patent US20230270713A1", "about": "“Administration of Resiniferatoxin For Treatment of Bladder Pain or Bladder Cancer” (Sorrento Therapeutics, Inc., priority 2020, published 2023)", "key": {"[1]": {"assay": "Plasma concentration of RTX (HPLC) after intravesical instillation in healthy cats", "assay_type": "in vivo, cat", "protocol": "(§1) To examine the effect of intravesical instillation of RTX on the bladder, 6 healthy cats, between the 2-5 years of age, were treated with either 5 (low dose), 25 (mid dose) or 50 mcg (high dose) of RTX (volume was 25 ml; concentrations were 0.2, 1, and 2 mcg/ml). These doses are considered equivalent to administration of 20, 100, or 200 mcg in a human with a volume of 100 ml. A seventh cat received saline only and served as the control. The bladders of the anesthetized cats were emptied and then flushed with sterile saline via a foley urinary catheter. Once the saline was removed, the treatment with RTX (test cats) or saline alone (control cat) was administered over 60 seconds and left in the bladder for 20 minutes.\nThe bladder of each cat was emptied and blood samples for pharmacokinetic analysis were collected pre-RTX treatment and at 0.5, 1, and 4 hours post RTX treatment."}, "[2]": {"assay": "Adverse events in dogs with bladder cancer (Example D)", "assay_type": "in vivo, dog", "protocol": "Dogs with bladder cancer were treated with RTX as follows. Under general anesthesia, RTX was infused directly into the bladder using a foley catheter. RTX remained in the bladder for 30 minutes before removal."}, "[3]": {"test_system": "CGRP and SP afferent nerve fibers (TRPV1 axons) innervating the cat bladder", "assay": "Density of CGRP and SP afferent nerve fibers in cat bladder (IHC, confocal)", "assay_type": "in vivo", "protocol": "as §1\nAt day 14 the cats were anesthetized and perfused with saline followed by 10% formalin. After confirmation of successful euthanasia, lumbar and sacral segments of the spinal cord with corresponding dorsal spinal ganglia, the urinary bladder and urethra were harvested and tissues were prepared for immunohistochemistry.\nPrevious studies have shown that TRPV1-immunoreactive axons co-express Calcitonin gene-related peptide (CGRP) and substance P (SP) (See, e.g., Sharrad et al. (2015) Neurosci. Lett., 599: 164-171; Bae et al. (2004) J. Comp. Neurol. 478: 62-71). Since feline bladder connective tissue, smooth muscle, and cell bodies of S2 DRG express CGRP+ and SP+ axons, expression of CGRP and SP were used in these studies to identify the majority of TRPV1 axons innervating the cat bladder and TRPV1+ cell bodies in cat S2 dorsal root ganglia (DRG)."}}, "note": "Values joined by “and” are separate entries in the source; they are usually repeats but may differ in a detail not shown here. Identical values can stand only once."}
{"smiles": "C=C(C)[C@]12C[C@@H](C)[C@@]34O[C@](Cc5ccccc5)(O[C@@H]1[C@@H]3C=C(COC(=O)Cc1ccc(O)c(OC)c1)C[C@]1(O)C(=O)C(C)=C[C@@H]41)O2", "note": "[RTX, resiniferatoxin]", "values": [{"measurement": "Plasma concentration of RTX", "setting": "[1]; 5 mcg total intravesical, 0 h, individual cats", "result": "BQL (BQL = Below the Quantifiable Limit (<50.0 pg/mL).)"}, {"measurement": "Plasma concentration of RTX", "setting": "[1]; 5 mcg total intravesical, 0.5 h, individual cats", "result": "BQL (BQL = Below the Quantifiable Limit (<50.0 pg/mL).)"}, {"measurement": "Plasma concentration of RTX", "setting": "[1]; 5 mcg total intravesical, 1 h, individual cats", "result": "BQL (BQL = Below the Quantifiable Limit (<50.0 pg/mL).)"}, {"measurement": "Plasma concentration of RTX", "setting": "[1]; 5 mcg total intravesical, 4 h, individual cats", "result": "BQL (BQL = Below the Quantifiable Limit (<50.0 pg/mL).)"}, {"measurement": "Plasma concentration of RTX", "setting": "[1]; 25 mcg total intravesical, 0 h, individual cats", "result": "BQL (BQL = Below the Quantifiable Limit (<50.0 pg/mL).)"}, {"measurement": "Plasma concentration of RTX", "setting": "[1]; 25 mcg total intravesical, 0.5 h, individual cats", "result": "55.5 pg/ml and 10.1* pg/ml"}, {"measurement": "Plasma concentration of RTX", "setting": "[1]; 25 mcg total intravesical, 1 h, individual cats", "result": "BQL (BQL = Below the Quantifiable Limit (<50.0 pg/mL).)"}, {"measurement": "Plasma concentration of RTX", "setting": "[1]; 25 mcg total intravesical, 4 h, individual cats", "result": "BQL (BQL = Below the Quantifiable Limit (<50.0 pg/mL).)"}, {"measurement": "Plasma concentration of RTX", "setting": "[1]; 50 mcg total intravesical, 0 h, individual cats", "result": "BQL (BQL = Below the Quantifiable Limit (<50.0 pg/mL).)"}, {"measurement": "Plasma concentration of RTX", "setting": "[1]; 50 mcg total intravesical, 0.5 h, individual cats", "result": "BQL (BQL = Below the Quantifiable Limit (<50.0 pg/mL).)"}, {"measurement": "Plasma concentration of RTX", "setting": "[1]; 50 mcg total intravesical, 1 h, individual cats", "result": "BQL (BQL = Below the Quantifiable Limit (<50.0 pg/mL).)"}, {"measurement": "Plasma concentration of RTX", "setting": "[1]; 50 mcg total intravesical, 4 h, individual cats", "result": "BQL (BQL = Below the Quantifiable Limit (<50.0 pg/mL).)"}, {"measurement": "Plasma levels of RTX", "setting": "[1]; all 3 groups, all time points (0, 0.5, 1, 4 h) except 0.5 h (25, 50 mcg) and 1 h (25 mcg)", "result": "below 50 pg/mL"}, {"measurement": "RTX in plasma", "setting": "[1]; all groups, 4 hours", "result": "below quantifiable levels"}, {"measurement": "concentration at 1 h", "setting": "[1]; cat, plasma, other: intravesical instillation, 25 mcg, 25 mcg total intravesical, 1 h, individual cats", "result": 0.0135, "unit": "ng/mL"}, {"measurement": "concentration at 0.5 h", "setting": "[1]; cat, plasma, other: intravesical instillation, 50 mcg, 50 mcg total intravesical, 0.5 h, individual cats", "result": 0.00877, "unit": "ng/mL"}, {"measurement": "Adverse events considered possibly attributable to RTX", "setting": "[2]; Case 03-01, 25 ug (2.8 ug/kg), Day 0", "result": "Bladder spasm, urinating around catheter (Grade 1)"}, {"measurement": "Adverse events considered possibly attributable to RTX", "setting": "[2]; Case 03-02, 50 ug (2.6 ug/kg)", "result": "none"}, {"measurement": "Adverse events considered possibly attributable to RTX", "setting": "[2]; Case 41-02, 50 ug (1.3 ug/kg) dosed twice, Day 1", "result": "crying out after urination (Grade 1)"}, {"measurement": "Adverse events considered possibly attributable to RTX", "setting": "[2]; Case 47-02, 50 ug (2.0 ug/kg), Day 0", "result": "diarrhea, vomiting, hyperoxia (Grade 1)"}, {"measurement": "dose-limiting toxicity", "setting": "[2]; dogs with bladder cancer", "result": "No dose-limiting toxicity was observed"}, {"measurement": "adverse events", "setting": "[2]; dogs with bladder cancer, 25-100 ug intravesical", "result": "minimal, mild, and transient"}, {"measurement": "grade of adverse events", "setting": "[2]; dogs with bladder cancer, all adverse events", "result": "grade 1"}, {"measurement": "Tolerability", "setting": "[2]; dogs with bladder cancer, all tested doses incl. maximum 50 ug or 2.8 ug/kg dosed twice 28 days apart", "result": "tolerated at all tested doses"}, {"measurement": "density of CGRP and SP axons innervating cat bladder body", "setting": "[3]; 5, 25 and 50 mcg single administration, 14 days post-treatment, vs saline", "result": "reduced"}, {"measurement": "density of CGRP or SP fibers in cat bladder", "setting": "[3]; 5 mcg RTX in 25 ml saline", "result": "modest reduction"}, {"measurement": "density of CGRP and SP-immunoreactive axons innervating cat bladder body", "setting": "[3]; 25 and 50 mcg, day 14, vs control saline", "result": "decreased"}, {"measurement": "ablation of afferent nerves", "setting": "[3]; 25 mcg and 50 mcg in 25 ml saline", "result": "effective at ablating afferent nerves"}, {"measurement": "density of CGRP and SP fibers in body, trigon and fundus", "setting": "[3]; 25 or 50 mcg in 25 ml saline, vs control", "result": "more significant reduction"}]}
